According to the supplement of paper PMC11616607:

Tests used:
Experiment in all cases: drug sensitivity score (DSS) from 5-point dose-response viability curve (DSS (area-under-curve based score)); higher = more sensitive (stronger growth inhibition or killing); extreme values may be limits of the assay
Conditions in all cases: exposure time: 72 h; concentration range: 5 concentrations over 10,000-fold range
OVCAR5 = tested on: OVCAR5
Summary of the method: (§1)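 Drug sensitivity scores were calculated in Breeze software for each cell line and drug pair; higher scores indicate more sensitivity. A score of zero indicates no response. The underlying assay used 384-well plates: drugs were placed by an Echo 550 acoustic dispenser at five concentrations spanning a 10,000-fold range, 1,500 ovarian cancer or normal ovarian cells were added per well, and cells were kept 3 days at 37°C, 5% CO2. Viability was then measured with CellTiter-Glo luminescence on a PHERAstar FS.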

OVCAR8 = tested on: OVCAR8
Summary of the method: as §1

COV318 = tested on: COV318
Summary of the method: as §1

HOSE1C = tested on: HOSE1C
Summary of the method: as §1

HOSE2C = tested on: HOSE2C
Summary of the method: as §1

Ovsaho = tested on: Ovsaho
Summary of the method: as §1

OV90 = tested on: OV90
Summary of the method: as §1

COV362 = tested on: COV362
Summary of the method: as §1

CAOV3 = tested on: CAOV3
Summary of the method: as §1

OVCAR4 = tested on: OVCAR4
Summary of the method: as §1

JHOS2 = tested on: JHOS2
Summary of the method: as §1

Kuramochi = tested on: Kuramochi
Summary of the method: as §1

SMILES | drug sensitivity score (OVCAR5) | drug sensitivity score (OVCAR8) | drug sensitivity score (COV318) | drug sensitivity score (HOSE1C) | drug sensitivity score (HOSE2C) | drug sensitivity score (Ovsaho) | drug sensitivity score (OV90) | drug sensitivity score (COV362) | drug sensitivity score (CAOV3) | drug sensitivity score (OVCAR4) | drug sensitivity score (JHOS2) | drug sensitivity score (Kuramochi)
Cn1cnc2c(F)c(Nc3ccc(Br)cc3Cl)c(C(=O)NOCCO)cc21 [Selumetinib] | 11.2 | 2.1 | 0 | 0.2 | 0 | 11.1 | 20.1 | 5.8 | 11.2 | 4.2 | 5.4 | 5.4
OC[C@H]1O[C@@H](n2cnc3c2N=CNC[C@H]3O)C[C@@H]1O [Pentostatin] | 0 | 0 | 0 | 0 | 1.5 | 0 | 0 | 0 | 0 | 0 | 0 | 0
CC[C@@]1(O)C(=O)OCc2c1cc1n(c2=O)Cc2cc3c(CN(C)C)c(O)ccc3nc2-1 [Topotecan] | 10.1 | 13.5 | 6.3 | 26.6 | 24.8 | 8.5 | 15.4 | 5.7 | 18.2 | 7.2 | 11 | 5.4
CC(C)c1cc(C(=O)N2Cc3ccc(CN4CCN(C)CC4)cc3C2)c(O)cc1O [Onalespib] | 10.6 | 16.4 | 5 | 9.2 | 11.7 | 3.1 | 14.6 | 7.7 | 11.6 | 6.7 | 12.8 | 6.6
COc1cccc2c1C(=O)c1c(O)c3c(c(O)c1C2=O)C[C@@](O)(C(=O)CO)C[C@@H]3O[C@H]1C[C@H](N)[C@@H](O)[C@H](C)O1 [Epirubicin] | 5.1 | 8.9 | 0.7 | 9.6 | 10.3 | 7.1 | 5.7 | 1 | 9.9 | 2.9 | 5.7 | 4.6
CC(C)NC(=O)COc1cccc(-c2nc(Nc3ccc4[nH]ncc4c3)c3ccccc3n2)c1 [KD025] | 2 | 8.2 | 0 | 0 | 0 | 1.9 | 8.7 | 0.5 | 0.4 | 3.6 | 1.2 | 3.8
COc1ccc(-c2ccc3ncc4c(c3c2)n(-c2ccc(N3CCNCC3)c(C(F)(F)F)c2)c(=O)n4C)cn1 [NVP-BGT226] | 14.6 | 14.9 | 9.3 | 22.2 | 15.7 | 15.6 | 17.2 | 4.6 | 12.7 | 13.6 | 11.6 | 10.2
Cn1c(=O)n(-c2ccc(C(C)(C)C#N)cc2)c2c3cc(-c4cnc5ccccc5c4)ccc3ncc21 [Dactolisib] | 15 | 14.4 | 13.4 | 20.5 | 13.9 | 15.8 | 16.7 | 3.7 | 11 | 15.3 | 13.7 | 14.4
CC(C)[C@H](C(=O)Nc1ccc(C(=O)NO)cc1)c1ccccc1 [AR-42] | 16.5 | 16.8 | 7.5 | 21.1 | 16.9 | 9 | 12.8 | 2.9 | 9.9 | 7.2 | 7.8 | 9.5
Nc1cccc2c1CN(C1CCC(=O)NC1=O)C2=O (stereo not given) [Lenalidomide] | 0 | 0 | 0 | 0 | 0 | 0 | 0 | 0 | 0 | 0 | 0.1 | 0.2
Nc1cc(F)ccc1NC(=O)/C=C/c1cnn(C/C=C/c2ccccc2)c1 [RGFP966] | 3.3 | 2.3 | 0.6 | 1.1 | 2.4 | 0 | 1.9 | 0 | 0.1 | 2.4 | 0.1 | 0.4
O=C(c1cc(Cc2n[nH]c(=O)c3ccccc23)ccc1F)N1CCN(C(=O)C2CC2)CC1 [Olaparib] | 2 | 4.9 | 2.9 | 0.8 | 2.5 | 2.1 | 5.4 | 0.3 | 4.7 | 1.9 | 4.6 | 3.4
COc1cc2ncnc(Nc3cccc(Cl)c3F)c2cc1OC(=O)N1CCN(C)C[C@H]1C [AZD3759] | 0.2 | 0 | 0 | 0 | 0 | 0 | 0 | 0 | 3.5 | 0 | 0.2 | 0
Cc1ccc(C(=O)Nc2ccc(CN3CCN(C)CC3)c(C(F)(F)F)c2)cc1C#Cc1cnc2cccnn12 [Ponatinib] | 5.5 | 3.3 | 5.7 | 3.3 | 8.5 | 7.6 | 6.9 | 4.9 | 2.4 | 5.7 | 3.6 | 9.3
CC(C)(C)c1cc(NC(=O)Nc2ccc(-c3cn4c(n3)sc3cc(OCCN5CCOCC5)ccc34)cc2)no1 [Quizartinib] | 0.8 | 2.2 | 0 | 0 | 0.8 | 0.2 | 0.2 | 0 | 0 | 1.5 | 0 | 0
Nc1nc2[nH]cc(CCc3ccc(C(=O)N[C@@H](CCC(=O)O)C(=O)O)cc3)c2c(=O)[nH]1 [Pemetrexed] | 7.6 | 18.2 | 0 | 22.9 | 20.4 | 6.1 | 3.7 | 12.7 | 14.1 | 4.2 | 0 | 5.8
COc1cccc2c1C(=O)c1c(O)c3c(c(O)c1C2=O)C[C@@](O)(C(C)=O)C[C@@H]3O[C@H]1C[C@H](N)[C@H](O)[C@H](C)O1 [Daunorubicin] | 8.2 | 10.8 | 1.7 | 11.5 | 10.9 | 7.9 | 5.3 | 3.6 | 9.4 | 3.2 | 6.2 | 4.2
CC[C@@H]1C(=O)OC[C@@H]1Cc1cncn1C [Pilocarpine] | 0 | 0 | 0 | 0 | 0 | 0 | 0 | 0 | 0 | 0 | 0.5 | 0
CCCCNc1ncc(C(=O)NCc2ccc(-n3ccnc3)cc2)c(NC2CCC(O)CC2)n1 (stereo not given) [UNC2881] | 0.6 | 0 | 0 | 0 | 0.5 | 0.8 | 1.2 | 0 | 0.2 | 0.1 | 0 | 0
C/C=C1\NC(=O)[C@H]2CSSCC/C=C/[C@H](CC(=O)N[C@H](C(C)C)C(=O)N2)OC(=O)[C@H](C(C)C)NC1=O [Romidepsin] | 33.3 | 28.1 | 12.3 | 39.3 | 35.8 | 25.9 | 29.8 | 11.9 | 28.2 | 20.8 | 22.7 | 27.8
COc1cc(OC2CCN(C)CC2)ccc1Nc1ncc2c(n1)n(C1CCCC1)c(=O)n2C [AZ 3146] | 6.2 | 4.6 | 2.7 | 0.9 | 2.4 | 4.7 | 4.8 | 0.8 | 3.6 | 1.5 | 2.3 | 3.9
C=CC(=O)Nc1cc(Nc2nccc(-c3cn(C)c4ccccc34)n2)c(OC)cc1N(C)CCN(C)C [Osimertinib] | 5.3 | 3.7 | 1.3 | 4.7 | 0.9 | 5.5 | 1.4 | 2.2 | 5.4 | 1.7 | 1.6 | 3.9
CCNC(=O)CCC/C=C\C[C@@H]1[C@@H](/C=C/[C@@H](O)CCc2ccccc2)[C@H](O)C[C@@H]1O [Bimatoprost] | 0 | 0 | 0 | 0 | 0 | 0 | 0 | 0 | 0 | 0 | 0 | 0
CC/C(=C(\c1ccc(O)cc1)c1ccc(OCCN(C)C)cc1)c1ccccc1 [4-hydroxytamoxifen] | 5.9 | 2.6 | 5.5 | 2.7 | 3 | 3.9 | 6 | 2 | 0.2 | 2.1 | 2.8 | 4.2
CC1(C)CCC(CN2CCN(c3ccc(C(=O)NS(=O)(=O)c4ccc(NCC5CCOCC5)c([N+](=O)[O-])c4)c(Oc4cnc5[nH]ccc5c4)c3)CC2)=C(c2ccc(Cl)cc2)C1 [Venetoclax] | 0 | 0 | 0 | 0 | 0 | 0 | 0 | 0 | 0 | 0 | 2.8 | 0
C=CC(=O)N1CCC(Oc2cc3c(Nc4ccc(Cl)c(Cl)c4F)ncnc3cc2OC)CC1 [Poziotinib] | 3.3 | 0 | 0 | 0.4 | 0 | 4.5 | 0 | 0 | 13.1 | 1.3 | 0.4 | 1.9
Cc1ccc(NC(=O)c2ccc(CN3CCN(C)CC3)cc2)cc1Nc1nccc(-c2cccnc2)n1 [Imatinib] | 1.3 | 0.5 | 0 | 0.2 | 0 | 0 | 1.5 | 0.3 | 0 | 0 | 0 | 
Nc1ccn([C@@H]2O[C@H](CO)[C@@H](O)[C@@H]2O)c(=O)n1 [Cytarabine] | 10.6 | 14.3 | 1 | 14 | 6.6 | 2 | 4.4 | 2.3 | 14.9 | 0 | 8.6 | 
CCN(CC)CCCC(C)Nc1ccnc2cc(Cl)ccc12 (stereo not given) [Chloroquine] | 8.8 | 5.8 | 4.9 | 6.3 | 7.2 | 8.1 | 10 | 5.5 | 7.2 | 6.2 |  | 
CC[C@H](CO)Nc1nc(NCc2ccccc2)c2ncn(C(C)C)c2n1 [Seliciclib] | 3.4 | 1.6 | 1.1 | 1.1 | 0 | 0.1 | 0.3 | 0 | 0.4 | 0 | 1.2 | 
